The values that follow come from ChEMBL document CHEMBL4619756, “Design, synthesis and biological evaluation of N-hydroxy-aminobenzyloxyarylamide analogues as novel selective κ opioid receptor antagonists” (Bioorg Med Chem Lett, 2020).

Test [1] has as its target T1, Kappa-type opioid receptor (Homo sapiens, UniProt P41145). The experiment in a line: Displacement of [3H]-U69593 from human kappa opiod receptor expressed in CHO cells at 1 uM incubated for 60 mins by liquid scintillation counting method relative to control. Format: cell-based.
In test [2] the target is T2, Mu-type opioid receptor (Homo sapiens, UniProt P35372). Put plainly: Displacement of [3H]-DAMGO from human mu opiod receptor expressed in CHO cells at 1 uM incubated for 60 mins by liquid scintillation counting method relative to control. It is filed as cell-based.
The species entered for test [3] is Homo sapiens. The experiment in a line: Selectivity index, ratio of Ki for human mu opiod receptor expressed in CHO cells to Ki for human kappa opiod receptor expressed in CHO cells. It is filed as cell-based.
For test [4], the species on record is Homo sapiens. Put plainly: Selectivity index, ratio of Ki for human delta opiod receptor expressed […] for human kappa opiod receptor expressed in CHO cells. Format: cell-based.
Test [5] concerns the target T2, Mu-type opioid receptor. Put plainly: Displacement of [3H]-DAMGO from human mu opiod receptor expressed in CHO cells incubated for 60 mins by liquid scintillation counting method. It is filed as cell-based.
Test [6] addresses T1, Kappa-type opioid receptor. Put plainly: Displacement of [3H]-U69593 from human kappa opiod receptor expressed in CHO cells incubated for 60 mins by liquid scintillation counting method. It is filed as cell-based.
In test [7] the target is T3, Delta-type opioid receptor (Homo sapiens, UniProt P41143). Put plainly: Displacement of [3H]-DPDPE from human delta opiod receptor expressed in human HEK293 cells at 1 uM incubated for 60 mins by liquid scintillation counting method relative to control. Format: cell-based.
Test [8] has as its target T3, Delta-type opioid receptor. The experiment in a line: Displacement of [3H]-DPDPE from human delta opiod receptor expressed in human HEK293 cells incubated for 60 mins by liquid scintillation counting method. Format: cell-based.
Test [9] deals with T3, Delta-type opioid receptor. Put plainly: Displacement of [3H]-DPDPE from human delta opiod receptor expressed in human HEK293 cells at 10 uM incubated for 60 mins by liquid scintillation counting method relative to control. Format: cell-based.
Test [10] has as its target T1, Kappa-type opioid receptor. Put plainly: Displacement of [3H]-U69593 from human kappa opiod receptor expressed in CHO cells at 10 uM incubated for 60 mins by liquid scintillation counting method relative to control. It is filed as cell-based.
In test [11] the target is T2, Mu-type opioid receptor. The experiment in a line: Displacement of [3H]-DAMGO from human mu opiod receptor expressed in CHO cells at 10 uM incubated for 60 mins by liquid scintillation counting method relative to control. Format: cell-based.
In test [12] the target is T2, Mu-type opioid receptor. The experiment in a line: Antagonist activity at human mu opiod receptor expressed in CHO cells assessed as inhibition of DAMGO-induced [35S]GTPgammaS binding incubated for 4 hrs by microbeta liquid scintillation counting method. Format: functional, cell-based.
Test [13] addresses T1, Kappa-type opioid receptor. The experiment in a line: Antagonist activity at human kappa opiod receptor expressed in CHO cells assessed as inhibition of U69593-induced [35S]GTPgammaS binding incubated for 4 hrs by microbeta liquid scintillation counting method. It is filed as functional, cell-based.
For test [14], the species on record is Homo sapiens. Put plainly: Selectivity index, ratio of IC50 for human delta opiod receptor expressed in HEK293 cells to IC50 for human kappa opiod receptor expressed in CHO cells.
Test [15] has as its target T3, Delta-type opioid receptor. The experiment in a line: Antagonist activity at human delta opiod receptor expressed in human HEK293 cells assessed as inhibition of DPDPE-induced [35S]GTPgammaS binding incubated for 2 hrs by microbeta liquid scintillation counting method. It is filed as functional, cell-based.
The species entered for test [16] is Homo sapiens. Put plainly: Selectivity index, ratio of IC50 for human mu opiod receptor expressed in CHO cells to IC50 for human kappa opiod receptor expressed in CHO cells. It is filed as cell-based.

pIC50, pKi: −log10 of the molar value.

T2 sequence (P35372 whole entry): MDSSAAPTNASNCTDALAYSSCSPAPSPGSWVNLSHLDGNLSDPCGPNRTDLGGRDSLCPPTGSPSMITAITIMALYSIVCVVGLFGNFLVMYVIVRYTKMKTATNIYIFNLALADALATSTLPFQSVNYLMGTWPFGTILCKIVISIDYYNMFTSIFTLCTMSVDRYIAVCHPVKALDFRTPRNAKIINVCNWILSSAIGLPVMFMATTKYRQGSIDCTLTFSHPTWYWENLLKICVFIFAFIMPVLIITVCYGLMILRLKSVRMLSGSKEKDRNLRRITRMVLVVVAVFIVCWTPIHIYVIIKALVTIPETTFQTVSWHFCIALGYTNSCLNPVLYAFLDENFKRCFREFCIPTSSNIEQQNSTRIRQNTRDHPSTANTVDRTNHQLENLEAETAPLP
T1 sequence (P41145 whole entry): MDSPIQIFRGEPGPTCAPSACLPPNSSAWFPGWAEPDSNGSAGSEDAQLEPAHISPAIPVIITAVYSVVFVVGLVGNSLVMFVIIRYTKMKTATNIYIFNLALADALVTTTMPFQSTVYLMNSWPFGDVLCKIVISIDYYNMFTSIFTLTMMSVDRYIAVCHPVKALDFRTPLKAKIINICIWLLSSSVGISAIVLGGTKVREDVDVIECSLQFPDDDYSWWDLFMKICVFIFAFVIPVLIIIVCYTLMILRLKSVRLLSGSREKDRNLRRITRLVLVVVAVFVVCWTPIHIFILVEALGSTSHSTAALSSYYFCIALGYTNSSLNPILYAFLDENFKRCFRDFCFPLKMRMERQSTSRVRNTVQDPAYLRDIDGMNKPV
T3 sequence (P41143 whole entry): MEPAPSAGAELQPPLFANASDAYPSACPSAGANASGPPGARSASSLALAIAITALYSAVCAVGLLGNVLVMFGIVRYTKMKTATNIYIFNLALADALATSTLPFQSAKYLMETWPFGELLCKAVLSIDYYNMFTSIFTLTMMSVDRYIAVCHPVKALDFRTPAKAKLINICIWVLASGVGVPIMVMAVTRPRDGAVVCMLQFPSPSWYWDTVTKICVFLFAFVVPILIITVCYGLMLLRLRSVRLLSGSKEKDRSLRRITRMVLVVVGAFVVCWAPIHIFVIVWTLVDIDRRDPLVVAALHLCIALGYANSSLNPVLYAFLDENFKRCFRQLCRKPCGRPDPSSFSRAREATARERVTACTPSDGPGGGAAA

For the compound `O=C(NO)c1ccc(Oc2ccc(CN3CCCC3c3cccc(F)c3)cc2)c(F)c1` (centres undefined), the inhibition in test [1] amounted to 45.8%; at Mu-type opioid receptor [2] it was 25.8%; in test [7] it was 16.8%; in [9] it was 28.4%; in test [10], 80.6%; on Mu-type opioid receptor [11], 73.2%. Moreover, the Ratio Ki in the test listed under Homo sapiens [3] is 4.6; in the test listed under Homo sapiens [4], more than 20. Moreover, the values for the pKi (at Mu-type opioid receptor [5]; in test [6]; in [8]) were 5.55, 6.30 and less than 5.00, respectively.

In the case of `COc1ccc(C2CCCN2Cc2ccc(Oc3ccc(C(=O)NO)cc3)cc2)cc1` (centres undefined), the inhibition came to 52.3% in test [1]; 12.8% at Mu-type opioid receptor [2]; 3.9% in test [7]; 24.4% in [9]; 86% in test [10]; 40.4% at Mu-type opioid receptor [11]. Besides, the figures for the Ratio Ki in the test listed under Homo sapiens [3] and in the test filed under Homo sapiens [4] were 12.8 and more than 55.5, respectively. In addition, the pKi was 5.64 on Mu-type opioid receptor [5], 6.74 in [6] and less than 5.00 in [8]. In addition, the pIC50 on Mu-type opioid receptor [12] is 6.70; in [13] it was 6.75; in test [15], less than 5.30. The Ratio IC50 in the test listed under Homo sapiens [14] is more than 28; in the test filed under Homo sapiens [16], 1.1.

As for `Cc1cc(C)cc(C2CCCN2Cc2ccc(Oc3ccc4c(=O)[nH]oc4c3)cc2)c1` (centres undefined), the inhibition in test [1] stood at 70.6%; on Mu-type opioid receptor [2] it was 49.4%; in [7], 33.9%; in [9], 54.8%; in test [10], 91.6%; at Mu-type opioid receptor [11], 74%. Further, the Ratio Ki in the test filed under Homo sapiens [3] was found to be 1; in the test filed under Homo sapiens [4] it was 3.5. The pKi at Mu-type opioid receptor [5] is 5.83; in test [6], 5.85; in test [8], 5.30.

Regarding `Cc1cc(C)cc(C2CCCN2Cc2ccc(Oc3ccc(C(N)=O)cc3F)cc2)c1` (racemic), the inhibition on Mu-type opioid receptor [2] is 52.7%; in test [7], 49.5%; at Mu-type opioid receptor [11], 87.2%. In addition, the Ratio Ki in the test listed under Homo sapiens [3] came out at 6.7; in the test filed under Homo sapiens [4] it was 7.5. Besides, the pKi was 7.03 on Mu-type opioid receptor [5], 7.85 in [6] and 6.98 in [8]. The values for the pIC50 (at Mu-type opioid receptor [12]; in [13]; in test [15]) were 7.53, 8.11 and 6.96, respectively. Also, the Ratio IC50 in the test filed under Homo sapiens [14] worked out at 14.1; in the test listed under Homo sapiens [16] it was 3.8.

As for `Cc1cc(C)cc(C2CCCN2Cc2ccc(Oc3ccc4c(=O)[nH]oc4c3F)c(F)c2)c1` (centres undefined), the inhibition in test [1] stood at 26.7%; at Mu-type opioid receptor [2], 9.4%; in test [7] it was 17.2%; in [9], 49.3%; in [10] it was 56.9%; at Mu-type opioid receptor [11] it was 37.3%.

On to `O=c1[nH]oc2cc(Oc3ccc(CN4CCCC4c4ccc(Cl)cc4)cc3)ccc12` (centres undefined), for which the inhibition in test [1] is 57.6%; on Mu-type opioid receptor [2], 47%; in [7], 15.7%; in [9], 35.9%; in test [10] it was 83.5%; at Mu-type opioid receptor [11] it was 54.5%.

`O=c1[nH]oc2c(Cl)c(Oc3ccc(CN4CCCC4c4cccc(Cl)c4)cc3)ccc12` (centres undefined): the inhibition in test [1] was found to be 0%; on Mu-type opioid receptor [2], 19.2%; in test [7] it was 0%; in test [9], 44.9%; in test [10], 45.4%; on Mu-type opioid receptor [11], 32.5%.
